# Data from patent US8962637B2, “Bicyclic compounds and their uses as dual c-SRC/JAK inhibitors” (Debiopharm S.A., priority 2010, dated 2015).
# Columns and labels:
# [1] = biological target: JAK2 (Homo sapiens (Human), UniProt O60674); experiment: TR-FRET JAK2 kinase assay; format: biochemical; details: ATP 10 μM
# Protocol: (§1) Compounds were screened in the TR-FRET assay for JAK2 and c-Src kinase inhibition. Ultra light poly GT (Perkin Elmer) was used as the substrate for JAK2 and c-Src with the ATP concentration of 10 μM and 50 μM, respectively. […] The dose-response curve fitting was done using GraphPad Prism software.
# [2] = biological target: c-Src (Homo sapiens (Human), UniProt P12931); experiment: TR-FRET c-Src kinase assay; format: biochemical; details: ATP 50 μM
# Protocol: as §1
# [3] = biological target: JAK1 (Homo sapiens (Human), UniProt P23458); experiment: JAK1 kinase inhibition; format: biochemical
# [4] = system: Mda-Mb-231 cells; experiment: Cell viability assay (XTT assay), Mda-Mb-231; format: cell-based; details: Homo sapiens, 72 hrs
# Outline: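 MDA-MB-231 cells seeded and dosed next day in triplicate, incubated 72 h. Medium replaced with XTT working solution for 2-5 h, absorbance read at 465 nm, and EC50 values derived from the readings.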
# [5] = system: A549 cells; experiment: Cell viability assay (XTT assay), A549; format: cell-based; details: Homo sapiens, 72 hrs
# Protocol: Next day compounds were added to cells and incubated for 72 hrs. Compound treatment was done in triplicates. After 72 hrs cell culture media was aspirated from the wells and XTT working solution was added and plates were incubated for 2-5 hrs. […] EC50 values were calculated using Graphpad Prism. Tumor cell lines used in the examples of the present invention were procured from ATCC. Description of the cell lines is included in the following table: […]
# [6] = system: A431 cancer cell line; experiment: Inhibition of cell growth in A431; format: cell-based; details: Homo sapiens, A-431
# [7] = system: pStat3; experiment: In-Cell-Western blot assay for pStat3 (ICW) in A431 cells; format: cell-based; details: Homo sapiens, A-431, 2 hrs, read-out: pSTAT3 inhibition
# Outline: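 Serum-starved (overnight) A431 cells treated with compound for 2 hrs, then fixed, permeabilized and probed with phospho-Stat3 antibody plus europium-labelled secondary. Europium signal normalized to Hoechst for cell number; IC50 calculated from normalized values.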
# [8] = Volume distribution; details: in vivo
# Text: Table 8 provides some volume distribution values of the compounds of the present invention.
# [9] = system: A431 tumor cells; experiment: A431 xenograft model; format: in vivo, athymic nude mice; details: A431 Xenograft model, 100 MPK
# Protocol: SC injection of 5×10^6 A431 tumor cells with Matrigel® on the left flank of 24 female athymic nude mice. Randomization of mice 14 days after tumor cell injection into 3 groups of 8 mice each with a mean tumor volume of 90±1 mm3.
# (§2) Formulation: 20% HPC, 2% ethanol solution in PBS for the compound No. 45
# • Normal saline for Gefitinib® Dosing route: Oral for the compound No. 45 and Gefitinib® Dose Volume: 10 mL/Kg body weight Dosing schedule: Once daily for 14 consecutive days (Q1Dx14) PK-PD experiment in A431 model: Tumors were allowed to grow to 250 mm^3 size. Compounds were dosed once and PBMCs and tumors were collected at Tmax for pStat3 estimation. Plasma was also collected to estimate drug concentration estimation. Efficacy experiment in A431 model: Dosage: • Group1. Vehicle control • Group2. Compound No. 45—150 MPK • Group3. […] Plasma collected for drug concentration estimation and whole blood was collected to isolate PBMCs to determine pStat3 inhibition by flow cytometry as PD readout. Tumors were snap frozen in liquid nitrogen and stored at −80° C. to estimate pStat3 by flow cytometry as PD readout Determination of Plasma Drug Concentration: […]
# [10] = system: B16F10 tumor cells; experiment: B16F10 metastasis model; format: in vivo, C57B16 mice; details: B16F10 model, 5 MPK
# Protocol: IV injection of 0.1×10^6 B16F10 tumor cells in the tail vain of 60 male C57B16 mice. Randomization of mice one day after tumor cell injection into 4 groups of 15 mice. Out of 15, 6 mice were sacrificed on 14th day for counting metastatic foci on lungs. Rest 9 mice were dosed continuously till morbidity/mortality for recording survival.
# as §2
# Plasma collected for drug concentration estimation and whole blood was collected to isolate PBMCs to determine pStat3 inhibition by flow cytometry as PD readout.
# [11] = system: pStat3; experiment: Quantification of pStat3 in PBMCs by flow cytometry; format: in vivo, mice; details: B16F10 model, 5 MPK
# Protocol: Phosphorylation of Stat3 was stimulated by addition of hIL6 (10 ug/mL) for 30 min at 37° C. Blood was fixed with formaldehyde (final 2% v/v) for 10 min at 37° C.
# Buffy coat (PBMCs) was separated by aspirating translucent layer using pipetteman and washed twice with PBS-1×
# Pre chilled PBMC's were permeabilized by adding ice cold Methanol, while vortexing gently (final volume 90% MeOH v/v) and incubated for 30 min on ice.
# Permeabilized PBMCs were washed with PBS once. PBMCs re-suspended to 2×10^6 cells in 200 μL of incubation buffer for 10 min at room temperature (RT). Primary Ab was added (1:100 dilution) and incubated 45 min at RT. Washed as before (twice) and re-suspended in fluorochrome conjugated secondary Ab (1:500 dilution) and incubated at RT in dark for 30 min. Washed and re-suspended in […] PBS.
# Measured pStat3 using FACS caliber machine (BD). Unstained PBMCs was used for cytometry settings. […] Histograms (cell number V/s FL1-H) were plotted. Percentage of cells that are phosphorylated by IL6 stimulation (M2 population), and inhibition of phosphorylation by inhibitor (decrease in M2 population) are calculated on histogram by marking peaks, M1 and M2.
# Sequence of JAK1 (P23458 whole entry): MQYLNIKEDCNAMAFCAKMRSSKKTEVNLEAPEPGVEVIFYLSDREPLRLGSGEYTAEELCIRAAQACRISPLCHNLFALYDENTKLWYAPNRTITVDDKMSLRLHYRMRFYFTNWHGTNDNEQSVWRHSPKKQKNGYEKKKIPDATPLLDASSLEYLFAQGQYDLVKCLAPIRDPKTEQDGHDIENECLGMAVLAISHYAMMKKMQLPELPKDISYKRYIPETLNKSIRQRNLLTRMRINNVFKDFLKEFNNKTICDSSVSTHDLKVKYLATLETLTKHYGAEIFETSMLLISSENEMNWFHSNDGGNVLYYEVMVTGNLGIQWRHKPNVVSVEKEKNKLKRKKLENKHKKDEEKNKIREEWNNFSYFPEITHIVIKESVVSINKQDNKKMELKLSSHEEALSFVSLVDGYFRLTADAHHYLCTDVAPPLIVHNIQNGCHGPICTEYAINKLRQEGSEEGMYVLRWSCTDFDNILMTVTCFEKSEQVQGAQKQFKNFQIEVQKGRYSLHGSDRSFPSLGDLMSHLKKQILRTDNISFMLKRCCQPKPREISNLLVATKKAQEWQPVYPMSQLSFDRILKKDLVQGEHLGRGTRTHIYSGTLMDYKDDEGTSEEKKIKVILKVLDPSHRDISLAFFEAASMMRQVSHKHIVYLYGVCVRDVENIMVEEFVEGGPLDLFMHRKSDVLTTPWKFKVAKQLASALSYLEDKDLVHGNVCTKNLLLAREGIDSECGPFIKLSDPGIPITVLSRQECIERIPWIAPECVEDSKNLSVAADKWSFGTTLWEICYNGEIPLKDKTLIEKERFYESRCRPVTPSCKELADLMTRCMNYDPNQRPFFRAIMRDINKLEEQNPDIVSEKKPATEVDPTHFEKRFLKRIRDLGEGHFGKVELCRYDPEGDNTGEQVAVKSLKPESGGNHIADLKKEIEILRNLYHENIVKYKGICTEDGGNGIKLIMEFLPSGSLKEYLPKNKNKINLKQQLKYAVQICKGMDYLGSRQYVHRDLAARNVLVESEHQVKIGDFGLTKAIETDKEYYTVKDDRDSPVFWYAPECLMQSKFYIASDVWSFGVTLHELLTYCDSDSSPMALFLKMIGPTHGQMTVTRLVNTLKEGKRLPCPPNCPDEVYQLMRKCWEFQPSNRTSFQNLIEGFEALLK
# Sequence of c-Src (P12931 whole entry, looked up): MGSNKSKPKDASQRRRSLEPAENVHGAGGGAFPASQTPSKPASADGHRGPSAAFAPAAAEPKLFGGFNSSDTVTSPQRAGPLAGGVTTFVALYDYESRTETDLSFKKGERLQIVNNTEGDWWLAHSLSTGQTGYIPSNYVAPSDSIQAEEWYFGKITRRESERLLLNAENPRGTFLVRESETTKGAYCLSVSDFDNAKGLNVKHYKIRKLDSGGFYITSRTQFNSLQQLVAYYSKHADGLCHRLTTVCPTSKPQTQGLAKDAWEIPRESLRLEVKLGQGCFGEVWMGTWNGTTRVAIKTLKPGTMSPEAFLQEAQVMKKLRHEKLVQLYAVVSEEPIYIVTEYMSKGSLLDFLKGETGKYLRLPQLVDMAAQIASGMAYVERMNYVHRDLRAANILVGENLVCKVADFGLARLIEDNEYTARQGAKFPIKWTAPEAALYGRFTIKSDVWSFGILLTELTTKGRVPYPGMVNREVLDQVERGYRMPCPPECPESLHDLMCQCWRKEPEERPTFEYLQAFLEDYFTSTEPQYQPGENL
# Sequence of JAK2 (O60674 whole entry): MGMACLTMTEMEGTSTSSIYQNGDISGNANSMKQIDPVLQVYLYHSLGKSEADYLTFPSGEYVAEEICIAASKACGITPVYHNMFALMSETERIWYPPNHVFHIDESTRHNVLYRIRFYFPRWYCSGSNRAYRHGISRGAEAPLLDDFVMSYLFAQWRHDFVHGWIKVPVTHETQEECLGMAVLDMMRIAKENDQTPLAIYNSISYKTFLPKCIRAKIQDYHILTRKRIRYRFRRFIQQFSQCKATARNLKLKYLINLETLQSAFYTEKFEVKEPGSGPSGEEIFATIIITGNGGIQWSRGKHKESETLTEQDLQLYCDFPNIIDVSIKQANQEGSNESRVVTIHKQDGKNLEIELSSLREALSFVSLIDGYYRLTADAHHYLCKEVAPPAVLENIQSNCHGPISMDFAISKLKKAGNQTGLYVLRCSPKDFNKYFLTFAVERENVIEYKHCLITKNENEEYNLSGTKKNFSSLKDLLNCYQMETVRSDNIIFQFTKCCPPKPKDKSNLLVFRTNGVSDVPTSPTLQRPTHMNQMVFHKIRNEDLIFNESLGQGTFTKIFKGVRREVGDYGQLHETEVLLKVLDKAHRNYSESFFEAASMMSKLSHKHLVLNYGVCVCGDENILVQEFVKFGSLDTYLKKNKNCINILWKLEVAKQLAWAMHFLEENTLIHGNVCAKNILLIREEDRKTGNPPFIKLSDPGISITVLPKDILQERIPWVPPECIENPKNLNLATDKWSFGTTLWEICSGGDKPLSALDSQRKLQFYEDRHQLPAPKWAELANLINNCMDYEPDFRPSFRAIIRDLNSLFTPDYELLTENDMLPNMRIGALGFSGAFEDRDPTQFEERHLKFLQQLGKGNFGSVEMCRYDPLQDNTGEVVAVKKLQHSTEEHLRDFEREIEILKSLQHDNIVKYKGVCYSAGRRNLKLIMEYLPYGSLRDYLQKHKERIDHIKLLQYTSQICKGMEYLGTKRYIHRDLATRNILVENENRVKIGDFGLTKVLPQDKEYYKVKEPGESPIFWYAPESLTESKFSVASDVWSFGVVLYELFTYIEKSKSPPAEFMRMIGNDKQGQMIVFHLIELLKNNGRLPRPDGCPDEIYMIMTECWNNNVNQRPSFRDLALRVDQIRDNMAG
smiles,measurement,setting,value
"Cc1ccc(NC(=O)c2cccc(C(F)(F)F)c2)cc1N1CCc2nc(Nc3ccc(C(=O)N4CCN(C)CC4)cc3)ncc2C1 [Compound 17, N-(4-Methyl-3-{2-[4-(4-methyl-piperazine-1-carbonyl)-phenylamino]-7,8-dihydro-5H-pyrido[4,3-d]pyrimidin-6-yl}-phenyl)-3-trifluoromethyl-benzamide]",IC50,[1],3 nM
same,IC50,[2],2 nM
same,inhibition at 0.1 µM,[3]; read-out: JAK1 % inhibition at 100 nM,85%
same,inhibition at 1 µM,[3]; read-out: JAK1 % inhibition at 1 μM,89%
same,EC50,[4],44 nM
same,EC50,[5],10 nM
same,EC50,[6],92 nM
same,IC50,[7],150 nM
same,Vd,[8],7.7 L/kg
"COc1cc2ncnc(Nc3ccc(F)c(Cl)c3)c2cc1OCCCN1CCOCC1 [Gefitinib, reference compound]",% TGI,[9],94.25%
"CC(=O)O[C@H]1C(=O)[C@@]2(C)[C@H]([C@H](OC(=O)c3ccccc3)[C@]3(O)C[C@H](OC(=O)[C@H](O)[C@@H](NC(=O)c4ccccc4)c4ccccc4)C(C)=C1C3(C)C)[C@]1(OC(C)=O)CO[C@@H]1C[C@@H]2O [Taxol, paclitaxel, reference compound]",Metastasis Inhibition,[10],32%
same,PBMCs % pStat3 inhibition,[11],25%
